From patent EP4785942A1, “NOVEL COMBINATION THERAPY FOR BLOOD CANCER” (Carna Biosciences, Inc., priority 2023, dated 2025)
pIC50: −log10 of the molar value. Where two headings read alike, the source gives them in different places.

What was measured:
Format in all cases: cell-based
THP-1 = assay: Cell growth suppression test in monotherapy (resazurin); conditions: Homo sapiens, read-out: Cell growth suppression activity IC50
Procedure: (§1) A human acute monocytic leukemia cell line (THP-1), a human acute myeloid leukemia cell line (MV-4-11), a human acute monocytic leukemia cell line (MOLM-14), and a human erythroleukemia cell line (TF-1) were cultured in a 5% CO2 incubator using a RPMI1640 medium (Roswell Park Memorial Institute medium, nacalai tesque) comprising 10% Fetal bovine serum (Thermo Scientific, SIGMA-ALDRICH, or Cytiva) and 1% penicillin/streptomycin (nacalai tesque).
(§2) THP-1 cells and MV-4-11 cells at 2×10^4 cells/well, and MOLM-14 cells and TF-1 cells at 5×10^3 cells/well were each seeded to a 96 well plate (cell plate), and thereto was added a test compound diluted with the medium so that the final concentration thereof would be 3 nM to 30 µM (final DMSO concentration: 0.3%). After the resulting mixture was cultured for 72 hours, a resazurin reagent (nacalai tesque) was added thereto. After 3 hours, a fluorescence at an excitation wavelength of 560 nm and a fluorescence wavelength of 590 nm was measured, and each IC50 value of the inhibitory activity was calculated by a criterion in which a well without the compound and without the cells was set to be 100%, and a well without the compound and with cells was set to be 0%.

MV-4-11 = assay: as above; conditions: Homo sapiens, read-out: Cell growth suppression activity IC50
Procedure: as §1, §2

MOLM-14 = assay: as above; conditions: Homo sapiens, read-out: Cell growth suppression activity IC50
Procedure: as §1, §2

TF-1 = assay: as above; conditions: Homo sapiens, read-out: Cell growth suppression activity IC50
Procedure: as §1, §2

THP-1 cells = assay: Dose-response test of DNA methyltransferase inhibitor in the presence of compound (I); conditions: Homo sapiens, read-out: THP-1 cell growth suppression activity azacitidine IC50 (converted)
Procedure: as §2
Changes in the IC50 value of a DNA methyltransferase inhibitor (azacitidine) in the presence of the compound (I) were investigated.

[1] = THP-1 cells, monotherapy, cultured for 72 hours
[2] = MV4-11, MV-4-11 cells, monotherapy, cultured for 72 hours
[3] = MOLM-14 cells, monotherapy, cultured for 72 hours
[4] = TF-1 cells, monotherapy, cultured for 72 hours

| SMILES | pIC50 (THP-1; [1]) | pIC50 (MV-4-11; [2]) | pIC50 (MOLM-14; [3]) | pIC50 (TF-1; [4]) | IC50 (THP-1 cells; THP-1, Concentration of compound (I) 0 µM (DMSO-added control)) | IC50 (THP-1 cells; THP-1, Concentration of compound (I) 3 µM) | pIC50 (THP-1; THP-1, 72 h) | pIC50 (MV-4-11; MV4-11, 72 h) | pIC50 (MOLM-14; MOLM-14, 72 h) | pIC50 (TF-1; TF-1, 72 h) |
| --- | --- | --- | --- | --- | --- | --- | --- | --- | --- | --- |
| Nc1ncn([C@@H]2O[C@H](CO)[C@@H](O)[C@H]2O)c(=O)n1 [Azacitidine, azacitidine] | 5.13 | 5.92 | 5.55 | 5.72 | 6.93 µM | 2.03 µM |  |  |  |  |
| Nc1ncn([C@H]2C[C@H](O)[C@@H](CO)O2)c(=O)n1 [Decitabine, decitabine] |  |  |  |  |  |  | < 4.52 | 6.27 | 6.80 | 6.92 |
| CCOC(=O)C1=C(NN2CCN(CC(F)(F)F)CC2)O/C(=C\c2c[nH]c3ncccc23)C1=O [Compound (I), ethyl 5-[(1H-pyrrolo[2,3-b]pyridin-3-yl)methylene]-4-oxo-2-{[4-(2,2,2-trifluoroethyl)piperazinyl]amino}-4,5-dihydrofuran-3-carboxylate] | 5.39 | 6.72 | 6.80 | 6.47 |  |  |  |  |  |  |
